# Results reported in patent publication US10787452B2 (Vertex Pharmaceuticals Incorporated, priority 2012, dated 2020).
# Tested on: HCT116 colorectal cancer cells
# Assay: Cisplatin sensitization assay (96 h cell viability MTS);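 further: compound concentration needed to lower the Cisplatin-alone IC50 by a set fold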
# Type: cell-based
# Settings: 96 h MTS, compound plus Cisplatin
# Outline: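 HCT116 cells were co-treated with compound and cisplatin, each in 2-fold serial dilutions from a 10 μM top final concentration, as a full matrix. After 96 h at 37 °C, 5% CO2, viability was read by MTS following a 1 h incubation with reagent.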
row,Compound,Cisplatin Sensitization Assay
1,"Nc1nn2cc(F)cnc2c1C(=O)Nc1cnccc1-c1ccc(S(=O)(=O)N2CCC2)cc1 [I-C-64, 2-amino-N-(4-(4-(azetidin-1-ylsulfonyl)phenyl)pyridin-3-yl)-6-fluoropyrazolo[1,5-a]pyrimidine-3-carboxamide]",+++ (Compounds with a Cisplatin sensitization value of <0.02 μM are marked with “+++.”)
2,"Nc1nn2cc(Cl)cnc2c1C(=O)Nc1cnccc1OCCCO [I-O-53, 2-amino-6-chloro-N-(4-(3-hydroxypropoxy)pyridin-3-yl)pyrazolo[1,5-a]pyrimidine-3-carboxamide]",+++ (Compounds with a Cisplatin sensitization value of <0.02 μM are marked with “+++.”)
3,Nc1nn2cc(F)cnc2c1C(=O)Nc1cnccc1N1CCN(C(=O)C2COC2)CC1 [I-N-249],+++ (Compounds with a Cisplatin sensitization value of <0.02 μM are marked with “+++.”)
4,"Nc1nn2cc(F)cnc2c1C(=O)Nc1cnccc1-n1cnc(C(F)(F)F)c1 [I-N-27, 2-amino-6-fluoro-N-(4-(4-(trifluoromethyl)-1H-imidazol-1-yl)pyridin-3-yl)pyrazolo[1,5-a]pyrimidine-3-carboxamide]",++ (Compounds with a Cisplatin sensitization value >0.02 μM but <0.2 μM are marked with “++.”)
5,"Nc1nn2cc(F)cnc2c1C(=O)Nc1cnccc1N1CCN2CCOC[C@H]2C1 [I-N-116, (R)-2-amino-6-fluoro-N-(4-(hexahydropyrazino[2,1-c][1,4]oxazin-8(1H)-yl)pyridin-3-yl)pyrazolo[1,5-a]pyrimidine-3-carboxamide]",++ (Compounds with a Cisplatin sensitization value >0.02 μM but <0.2 μM are marked with “++.”)
6,"CCC(C#N)c1cnc2c(C(=O)Nc3cnccc3OC)c(N)nn2c1 (stereo not shown) [I-O-20, 2-amino-6-(1-cyanopropyl)-N-(4-methoxypyridin-3-yl)pyrazolo[1,5-a]pyrimidine-3-carboxamide]",++ (Compounds with a Cisplatin sensitization value >0.02 μM but <0.2 μM are marked with “++.”)
7,"COC1(CN(C)C)CCN(c2ccncc2NC(=O)c2c(N)nn3cc(Cl)cnc23)CC1 [I-N-46, 2-amino-6-chloro-N-(4-(4-((dimethylamino)methyl)-4-methoxypiperidin-1-yl)pyridin-3-yl)pyrazolo[1,5-a]pyrimidine-3-carboxamide]",+++ (Compounds with a Cisplatin sensitization value of <0.02 μM are marked with “+++.”)
8,"Nc1nn2cc(F)cnc2c1C(=O)Nc1cnccc1N1CCN(C2COC2)CC1 [I-N-1, 2-amino-6-fluoro-N-(4-(4-(oxetan-3-yl)piperazin-1-yl)pyridin-3-yl)pyrazolo[1,5-a]pyrimidine-3-carboxamide]",++ (Compounds with a Cisplatin sensitization value >0.02 μM but <0.2 μM are marked with “++.”)
9,"CN1CCC(C(=O)N2CCC(c3ccncc3NC(=O)c3c(N)nn4cc(F)cnc34)CC2)CC1 [I-C-16, 2-amino-6-fluoro-N-(4-(1-(1-methylpiperidine-4-carbonyl)piperidin-4-yl)pyridin-3-yl)pyrazolo[1,5-a]pyrimidine-3-carboxamide]",+ (Compounds with a Cisplatin sensitization value >0.2 μM but <5 μM are marked with “+.”)
10,"CS(=O)(=O)C1CN(C(=O)C2CCN(c3c(F)cncc3NC(=O)c3c(N)nn4cc(F)cnc34)CC2)C1 [I-G-86, 2-amino-6-fluoro-N-(5-fluoro-4-(4-(3-(methylsulfonyl)azetidine-1-carbonyl)piperidin-1-yl)pyridin-3-yl)pyrazolo[1,5-a]pyrimidine-3-carboxamide]",+++ (Compounds with a Cisplatin sensitization value of <0.02 μM are marked with “+++.”)
11,"Nc1nn2cc(F)cnc2c1C(=O)Nc1cnccc1N1CCC(C(=O)N2CC(F)(F)C2)CC1 [I-G-80, 2-amino-N-(4-(4-(3,3-difluoroazetidine-1-carbonyl)piperidin-1-yl)pyridin-3-yl)-6-fluoropyrazolo[1,5-a]pyrimidine-3-carboxamide]",+++ (Compounds with a Cisplatin sensitization value of <0.02 μM are marked with “+++.”)
12,"CN1CCN2CCN(c3ccncc3NC(=O)c3c(N)nn4cc(F)cnc34)CC2C1=O (stereo not shown) [I-N-233, 2-amino-6-fluoro-N-(4-(8-methyl-9-oxohexahydro-1H-pyrazino[1,2-a]pyrazin-2(6H)-yl)pyridin-3-yl)pyrazolo[1,5-a]pyrimidine-3-carboxamide]",++ (Compounds with a Cisplatin sensitization value >0.02 μM but <0.2 μM are marked with “++.”)
13,"Nc1nn2cc(Cl)cnc2c1C(=O)Nc1cnccc1N1CCC(N2CC[C@@H](F)C2)CC1 [I-N-98, (R)-2-amino-6-chloro-N-(4-(4-(3-fluoropyrrolidin-1-yl)piperidin-1-yl)pyridin-3-yl)pyrazolo[1,5-a]pyrimidine-3-carboxamide]",+++ (Compounds with a Cisplatin sensitization value of <0.02 μM are marked with “+++.”)
14,"C[C@@H]1CN(C2COC2)CCN1c1ccncc1NC(=O)c1c(N)nn2cc(F)cnc12 [I-N-23, (R)-2-amino-6-fluoro-N-(4-(2-methyl-4-(oxetan-3-yl)piperazin-1-yl)pyridin-3-yl)pyrazolo[1,5-a]pyrimidine-3-carboxamide]",+++ (Compounds with a Cisplatin sensitization value of <0.02 μM are marked with “+++.”)
15,"CC(=O)N1CCC2(CCN(c3ccncc3NC(=O)c3c(N)nn4cc(F)cnc34)CC2)C1 [I-N-257, N-(4-(2-acetyl-2,8-diazaspiro[4.5]decan-8-yl)pyridin-3-yl)-2-amino-6-fluoropyrazolo[1,5-a]pyrimidine-3-carboxamide]",+++ (Compounds with a Cisplatin sensitization value of <0.02 μM are marked with “+++.”)
16,"CC1(N2CCN(c3ccncc3NC(=O)c3c(N)nn4cc(F)cnc34)CC2)COC1 [I-N-62, 2-amino-6-fluoro-N-(4-(4-(3-methyloxetan-3-yl)piperazin-1-yl)pyridin-3-yl)pyrazolo[1,5-a]pyrimidine-3-carboxamide]",++ (Compounds with a Cisplatin sensitization value >0.02 μM but <0.2 μM are marked with “++.”)
17,"Nc1nn2cc(F)cnc2c1C(=O)Nc1cncc(C2CC2)c1N1CCN([C@H]2CCOC2)CC1 [I-N-120, (S)-2-amino-N-(5-cyclopropyl-4-(4-(tetrahydrofuran-3-yl)piperazin-1-yl)pyridin-3-yl)-6-fluoropyrazolo[1,5-a]pyrimidine-3-carboxamide]",+++ (Compounds with a Cisplatin sensitization value of <0.02 μM are marked with “+++.”)
18,"Nc1nn2cc(F)cnc2c1C(=O)Nc1cnccc1N1CCS(=O)(=O)CC1 [I-N-210, 2-amino-N-(4-(1,1-dioxidothiomorpholino)pyridin-3-yl)-6-fluoropyrazolo[1,5-a]pyrimidine-3-carboxamide]",+++ (Compounds with a Cisplatin sensitization value of <0.02 μM are marked with “+++.”)
19,"Nc1nn2cc(F)cnc2c1C(=O)Nc1cncc(F)c1N1CCC(CN2CCCC2=O)CC1 [I-N-213, 2-amino-6-fluoro-N-(5-fluoro-4-(4-((2-oxopyrrolidin-1-yl)methyl)piperidin-1-yl)pyridin-3-yl)pyrazolo[1,5-a]pyrimidine-3-carboxamide]",+++ (Compounds with a Cisplatin sensitization value of <0.02 μM are marked with “+++.”)
20,"Nc1nn2cc(F)cnc2c1C(=O)Nc1cnccc1-n1ccnc1C1CC1 [I-N-202, 2-amino-N-(4-(2-cyclopropyl-1H-imidazol-1-yl)pyridin-3-yl)-6-fluoropyrazolo[1,5-a]pyrimidine-3-carboxamide]",+++ (Compounds with a Cisplatin sensitization value of <0.02 μM are marked with “+++.”)
21,"CN1CCOC[C@@H]1c1ccc(-c2ccncc2NC(=O)c2c(N)nn3cc(F)cnc23)cc1 [I-C-66, (S)-2-amino-6-fluoro-N-(4-(4-(4-methylmorpholin-3-yl)phenyl)pyridin-3-yl)pyrazolo[1,5-a]pyrimidine-3-carboxamide]",+++ (Compounds with a Cisplatin sensitization value of <0.02 μM are marked with “+++.”)
22,"Cn1ccc(-c2ccncc2NC(=O)c2c(N)nn3cc(F)cnc23)n1 [I-C-68, 2-amino-6-fluoro-N-(4-(1-methyl-1H-pyrazol-3-yl)pyridin-3-yl)pyrazolo[1,5-a]pyrimidine-3-carboxamide]",+ (Compounds with a Cisplatin sensitization value >0.2 μM but <5 μM are marked with “+.”)
23,"N#CCc1cnc2c(C(=O)Nc3cnccc3N3CCCC3)c(N)nn2c1 [I-N-77, 2-amino-6-(cyanomethyl)-N-(4-(pyrrolidin-1-yl)pyridin-3-yl)pyrazolo[1,5-a]pyrimidine-3-carboxamide]",+ (Compounds with a Cisplatin sensitization value >0.2 μM but <5 μM are marked with “+.”)
24,"CN(C)CCOc1cc(C(F)(F)F)ncc1NC(=O)c1c(N)nn2cc(Cl)cnc12 [I-O-71, 2-amino-6-chloro-N-(4-(2-(dimethylamino)ethoxy)-6-(trifluoromethyl)pyridin-3-yl)pyrazolo[1,5-a]pyrimidine-3-carboxamide]",+ (Compounds with a Cisplatin sensitization value >0.2 μM but <5 μM are marked with “+.”)
25,"Cc1ncc(-c2ccncc2NC(=O)c2c(N)nn3cc(F)cnc23)n1C [I-C-77, 2-amino-N-(4-(1,2-dimethyl-1H-imidazol-5-yl)pyridin-3-yl)-6-fluoropyrazolo[1,5-a]pyrimidine-3-carboxamide]",+++ (Compounds with a Cisplatin sensitization value of <0.02 μM are marked with “+++.”)
